From US20050014215A1, “Method and medium for the detecting/identifying microorganisms with esterase and/or r osidase and/or peptidase and/or sulfatase and/or phosphatase activity” (priority 2000, published 2005)
Like-named read-outs stand apart in the source and are kept apart here.

Legend:
Staphylococcus aureus 20 = assay: Colony coloration on fresh and stored media, Example 10 (6-chloro-3-indolyl-β-N-acetylglucosaminide, Columbia); format: cell-based; set-up: key: M: magenta; —: colorless
Method: (§1) Two stock solutions of substrate were prepared, one having a concentration of 50 g/l in DMF and the other having a concentration of 50 g/l in a mixture of DMF (40%) and Tween® 20 (60%). A volume corresponding to a final concentration of 175 mg/l of substrate was then added to a supercooled gelled medium, namely Columbia medium not supplemented with blood. […] After three weeks, six weeks, nine weeks and twelve weeks, two media like those described above were prepared for immediate use.
(§2) Microorganisms originating from the Applicant's collection were inoculated from a 0.5 McFarland suspension, by isolation in three quadrants, onto the two media prepared for immediate use and the two media stored at +4° C. The dishes were incubated at 37° C. for 48 hours. The colonies formed were examined visually after 24 and 48 hours of incubation. The coloration of these colonies and the intensity of this coloration were noted.

[1] = test system: Pseudomonas aeruginosa 165; assay: as above; format: cell-based; set-up: key: M: magenta; —: colorless
Method: as §1, §2

Listeria ivanovii 18 = assay: as above; format: cell-based; set-up: key to intensity of coloration (arbitrary scale): 0: no activity; 0.1: trace of coloration; 0.5: very pale coloration; 1: distinct coloration of low intensity; 2: clear coloration of medium intensity; 3: intense coloration; 4: very intense coloration; —: absence of coloration or intensity; key to color: M: magenta; —: colorless
Method: as §1, §2

[2] = test system: Listeria monocytogenes 23; assay: as above; format: cell-based; set-up: key to intensity of coloration (arbitrary scale): 0: no activity; 0.1: trace of coloration; 0.5: very pale coloration; 1: distinct coloration of low intensity; 2: clear coloration of medium intensity; 3: intense coloration; 4: very intense coloration; —: absence of coloration or intensity; key to color: M: magenta; —: colorless
Method: as §1, §2

Listeria innocua 36 = assay: as above; format: cell-based; set-up: key to intensity of coloration (arbitrary scale): 0: no activity; 0.1: trace of coloration; 0.5: very pale coloration; 1: distinct coloration of low intensity; 2: clear coloration of medium intensity; 3: intense coloration; 4: very intense coloration; —: absence of coloration or intensity; key to color: M: magenta; —: colorless
Method: as §1, §2

[3] = Appearance of stock solutions of 2-alizarin octanoate in solvent/Tween 20 (Example 7); format: physicochemical; conditions: 60% Tween 20
Method: The substrate tested is 1,2-dihydroxyanthraquinone octanoate (2-alizarin octanoate). Different stock solutions of substrate are prepared with DMF, DMSO, methanol or methoxyethanol as solvent and in the presence of Tween® 20 in all cases.

[4] = Substrate solubility with different FASE (Example 8); format: physicochemical
Method: Different stock solutions of substrate are prepared in DMSO in the presence of Tween® 20, Tween® 80 (polyethoxylated sorbitan monooleate), Tween® 60 (polyethoxylated sorbitan monostearate) or Tween® 65 (polyethoxylated sorbitan tristearate). A volume corresponding to a final concentration of 500 mg/l of substrate is then added to a supercooled gelled medium, namely MacConkey medium.

[5] = IT 24 h, fresh medium, DMF Tween 20, 6-week comparison
[6] = IT 24 h, fresh medium, DMF Tween 20, 9-week comparison
[7] = IT 24 h, fresh medium, DMF Tween 20, 12-week comparison
[8] = IT 24 h, fresh medium, DMF, 6-week comparison
[9] = IT 24 h, fresh medium, DMF, 9-week comparison
[10] = IT 24 h, fresh medium, DMF, 12-week comparison
[11] = IT 24 h, medium stored for 6 weeks at +4° C., DMF
[12] = IT 24 h, medium stored for 6 weeks at +4° C., DMF Tween 20
[13] = IT 24 h, medium stored for 9 weeks at +4° C., DMF
[14] = IT 24 h, medium stored for 9 weeks at +4° C., DMF Tween 20
[15] = IT 24 h, medium stored for 12 weeks at +4° C., DMF
[16] = IT 24 h, medium stored for 12 weeks at +4° C., DMF Tween 20
[17] = IT 48 h, fresh medium, DMF Tween 20, 6-week comparison
[18] = IT 48 h, fresh medium, DMF Tween 20, 9-week comparison
[19] = IT 48 h, fresh medium, DMF Tween 20, 12-week comparison
[20] = IT 48 h, fresh medium, DMF, 6-week comparison
[21] = IT 48 h, fresh medium, DMF, 9-week comparison
[22] = IT 48 h, fresh medium, DMF, 12-week comparison
[23] = IT 48 h, medium stored for 6 weeks at +4° C., DMF
[24] = IT 48 h, medium stored for 6 weeks at +4° C., DMF Tween 20
[25] = IT 48 h, medium stored for 9 weeks at +4° C., DMF
[26] = IT 48 h, medium stored for 9 weeks at +4° C., DMF Tween 20
[27] = IT 48 h, medium stored for 12 weeks at +4° C., DMF
[28] = IT 48 h, medium stored for 12 weeks at +4° C., DMF Tween 20

CC(=O)N[C@H]1[C@H](Oc2c[nH]c3cc(Cl)ccc23)O[C@H](CO)[C@@H](O)[C@@H]1O
2.5: intensity of coloration (arbitrary scale) (Listeria ivanovii 18; [17]) | intensity of coloration (arbitrary scale) (Listeria ivanovii 18; [18]) | intensity of coloration (arbitrary scale) (Listeria ivanovii 18; [19]) | intensity of coloration (arbitrary scale) (Listeria ivanovii 18; [20]) | intensity of coloration (arbitrary scale) (Listeria ivanovii 18; [21]) | intensity of coloration (arbitrary scale) (Listeria ivanovii 18; [22]) | intensity of coloration (arbitrary scale) (Listeria ivanovii 18; [24]) | intensity of coloration (arbitrary scale) (Listeria ivanovii 18; [26]) | intensity of coloration (arbitrary scale) (Listeria innocua 36; [26]) | intensity of coloration (arbitrary scale) (Listeria innocua 36; [28])
1.5: intensity of coloration (arbitrary scale) (Listeria ivanovii 18; [5]) | intensity of coloration (arbitrary scale) (Listeria ivanovii 18; [6]) | intensity of coloration (arbitrary scale) (Listeria ivanovii 18; [7]) | intensity of coloration (arbitrary scale) (Listeria ivanovii 18; [8]) | intensity of coloration (arbitrary scale) (Listeria ivanovii 18; [9]) | intensity of coloration (arbitrary scale) (Listeria ivanovii 18; [10]) | intensity of coloration (arbitrary scale) (Listeria ivanovii 18; [12]) | intensity of coloration (arbitrary scale) (Listeria innocua 36; [14])
—: color (Staphylococcus aureus 20; [5]) | color (Staphylococcus aureus 20; [6]) | color (Staphylococcus aureus 20; [7]) | color (Staphylococcus aureus 20; [8]) | color (Staphylococcus aureus 20; [9]) | color (Staphylococcus aureus 20; [10]) | color (Staphylococcus aureus 20; [11]) | color (Staphylococcus aureus 20; [12]) | color (Staphylococcus aureus 20; [13]) | color (Staphylococcus aureus 20; [14]) | color (Staphylococcus aureus 20; [15]) | color (Staphylococcus aureus 20; [16]) | color (Staphylococcus aureus 20; [17]) | color (Staphylococcus aureus 20; [18]) | color (Staphylococcus aureus 20; [19]) | color (Staphylococcus aureus 20; [20]) | color (Staphylococcus aureus 20; [21]) | color (Staphylococcus aureus 20; [22]) | color (Staphylococcus aureus 20; [23]) | color (Staphylococcus aureus 20; [24]) | color (Staphylococcus aureus 20; [25]) | color (Staphylococcus aureus 20; [26]) | color (Staphylococcus aureus 20; [27]) | color (Staphylococcus aureus 20; [28]) | color [1, 5] | color [1, 6] | color [1, 7] | color [1, 8] | color [1, 9] | color [1, 10] | color [1, 11] | color [1, 12] | color [1, 13] | color [1, 14] | color [1, 15] | color [1, 16] | color [1, 17] | color [1, 18] | color [1, 19] | color [1, 20] | color [1, 21] | color [1, 22] | color [1, 23] | color [1, 24] | color [1, 25] | color [1, 26] | color [1, 27] | color [1, 28]
3: intensity of coloration (arbitrary scale) [2, 17] | intensity of coloration (arbitrary scale) [2, 18] | intensity of coloration (arbitrary scale) [2, 19] | intensity of coloration (arbitrary scale) [2, 20] | intensity of coloration (arbitrary scale) [2, 21] | intensity of coloration (arbitrary scale) [2, 22] | intensity of coloration (arbitrary scale) [2, 24] | intensity of coloration (arbitrary scale) (Listeria innocua 36; [17]) | intensity of coloration (arbitrary scale) (Listeria innocua 36; [18]) | intensity of coloration (arbitrary scale) (Listeria innocua 36; [19]) | intensity of coloration (arbitrary scale) (Listeria innocua 36; [20]) | intensity of coloration (arbitrary scale) (Listeria innocua 36; [21]) | intensity of coloration (arbitrary scale) (Listeria innocua 36; [22]) | intensity of coloration (arbitrary scale) (Listeria innocua 36; [24])
0.5: intensity of coloration (arbitrary scale) (Listeria ivanovii 18; [11]) | intensity of coloration (arbitrary scale) (Listeria ivanovii 18; [25]) | intensity of coloration (arbitrary scale) [2, 13] | intensity of coloration (arbitrary scale) [2, 25] | intensity of coloration (arbitrary scale) (Listeria innocua 36; [13]) | intensity of coloration (arbitrary scale) (Listeria innocua 36; [27])
M: color (Listeria ivanovii 18; [5]) | color (Listeria ivanovii 18; [6]) | color (Listeria ivanovii 18; [7]) | color (Listeria ivanovii 18; [8]) | color (Listeria ivanovii 18; [9]) | color (Listeria ivanovii 18; [10]) | color (Listeria ivanovii 18; [11]) | color (Listeria ivanovii 18; [12]) | color (Listeria ivanovii 18; [13]) | color (Listeria ivanovii 18; [14]) | color (Listeria ivanovii 18; [15]) | color (Listeria ivanovii 18; [16]) | color (Listeria ivanovii 18; [17]) | color (Listeria ivanovii 18; [18]) | color (Listeria ivanovii 18; [19]) | color (Listeria ivanovii 18; [20]) | color (Listeria ivanovii 18; [21]) | color (Listeria ivanovii 18; [22]) | color (Listeria ivanovii 18; [23]) | color (Listeria ivanovii 18; [24]) | color (Listeria ivanovii 18; [25]) | color (Listeria ivanovii 18; [26]) | color (Listeria ivanovii 18; [27]) | color (Listeria ivanovii 18; [28]) | color [2, 5] | color [2, 6] | color [2, 7] | color [2, 8] | color [2, 9] | color [2, 10] | color [2, 11] | color [2, 12] | color [2, 13] | color [2, 14] | color [2, 15] | color [2, 16] | color [2, 17] | color [2, 18] | color [2, 19] | color [2, 20] | color [2, 21] | color [2, 22] | color [2, 23] | color [2, 24] | color [2, 25] | color [2, 26] | color [2, 27] | color [2, 28] | color (Listeria innocua 36; [5]) | color (Listeria innocua 36; [6]) | color (Listeria innocua 36; [7]) | color (Listeria innocua 36; [8]) | color (Listeria innocua 36; [9]) | color (Listeria innocua 36; [10]) | color (Listeria innocua 36; [11]) | color (Listeria innocua 36; [12]) | color (Listeria innocua 36; [13]) | color (Listeria innocua 36; [14]) | color (Listeria innocua 36; [15]) | color (Listeria innocua 36; [16]) | color (Listeria innocua 36; [17]) | color (Listeria innocua 36; [18]) | color (Listeria innocua 36; [19]) | color (Listeria innocua 36; [20]) | color (Listeria innocua 36; [21]) | color (Listeria innocua 36; [22]) | color (Listeria innocua 36; [23]) | color (Listeria innocua 36; [24]) | color (Listeria innocua 36; [25]) | color (Listeria innocua 36; [26]) | color (Listeria innocua 36; [27]) | color (Listeria innocua 36; [28])
1: intensity of coloration (arbitrary scale) (Listeria ivanovii 18; [14]) | intensity of coloration (arbitrary scale) (Listeria ivanovii 18; [16]) | intensity of coloration (arbitrary scale) [2, 11] | intensity of coloration (arbitrary scale) [2, 14] | intensity of coloration (arbitrary scale) [2, 16] | intensity of coloration (arbitrary scale) (Listeria innocua 36; [11]) | intensity of coloration (arbitrary scale) (Listeria innocua 36; [16]) | intensity of coloration (arbitrary scale) (Listeria innocua 36; [25])
2: intensity of coloration (arbitrary scale) (Listeria ivanovii 18; [23]) | intensity of coloration (arbitrary scale) (Listeria ivanovii 18; [28]) | intensity of coloration (arbitrary scale) [2, 5] | intensity of coloration (arbitrary scale) [2, 6] | intensity of coloration (arbitrary scale) [2, 7] | intensity of coloration (arbitrary scale) [2, 8] | intensity of coloration (arbitrary scale) [2, 9] | intensity of coloration (arbitrary scale) [2, 10] | intensity of coloration (arbitrary scale) [2, 12] | intensity of coloration (arbitrary scale) [2, 23] | intensity of coloration (arbitrary scale) [2, 26] | intensity of coloration (arbitrary scale) [2, 28] | intensity of coloration (arbitrary scale) (Listeria innocua 36; [5]) | intensity of coloration (arbitrary scale) (Listeria innocua 36; [6]) | intensity of coloration (arbitrary scale) (Listeria innocua 36; [7]) | intensity of coloration (arbitrary scale) (Listeria innocua 36; [8]) | intensity of coloration (arbitrary scale) (Listeria innocua 36; [9]) | intensity of coloration (arbitrary scale) (Listeria innocua 36; [10]) | intensity of coloration (arbitrary scale) (Listeria innocua 36; [12]) | intensity of coloration (arbitrary scale) (Listeria innocua 36; [23])

1,2-dihydroxyanthraquinone octanoate [2-alizarin octanoate]
total: Appearance of the stock solution ([3]; 40% DMF) | Appearance of the stock solution ([3]; 40% methoxyethanol)
precipitate: Appearance of the stock solution ([3]; 40% DMSO) | Appearance of the stock solution ([3]; 40% methanol)

polyethoxylated sorbitan monolaurate containing 20 units of ethylene oxide (EO) [TWEEN® 20]
good substrate solubility: substrate solubility ([4]; 40% DMSO, 60% Tween)

polyethoxylated sorbitan monooleate (20 EO) [TWEEN® 80]
good substrate solubility: substrate solubility [4]

polyethoxylated sorbitan monostearate (20 EO) [TWEEN® 60]
good substrate solubility: substrate solubility [4]
